Results on 14 compounds are retold here after patent publication US20240150342A1, “ESTROGEN-RELATED RECEPTOR ALPHA MODULATORS” (LEAD PHARMA HOLDING B.V., priority 2019, published 2024).

Where only a bound is given, the exact number is not on record here.

In the assay the target is T1, ERRα ligand binding domain (ERRα-LBD) (Homo sapiens, UniProt P11474).
T1 construct: made in house; host or cells: E. coli
T1 sequence (P11474 193-421 limits assumed): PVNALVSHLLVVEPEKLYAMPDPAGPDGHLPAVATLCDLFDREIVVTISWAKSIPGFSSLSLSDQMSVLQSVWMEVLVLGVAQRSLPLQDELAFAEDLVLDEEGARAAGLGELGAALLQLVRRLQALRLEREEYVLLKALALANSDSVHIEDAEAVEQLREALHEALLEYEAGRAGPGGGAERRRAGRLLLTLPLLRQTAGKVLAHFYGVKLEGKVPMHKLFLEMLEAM
The assay can be described thus: ERRα AlphaScreen Assay. Format: biochemical. Particulars: disruption of binding of ERRα-LBD protein to biotin-PGC1α-3 co-activator peptide; read-out: mean pIC50 (converted). The source says:
This assay was based on the knowledge that nuclear receptors interact with cofactors in a ligand dependent matter. The sites of interaction have been mapped to LXXLL motifs that are present in the co-activator sequences. Short peptide sequences that contain the LXXLL motif mimic the behavior of full length co-activators.
The ERRα AlphaScreen Assay described here relies on the interaction of the co-activator peptide with purified bacterial- expressed ERRα ligand binding domain (ERRα-LBD); upon ligand binding, the ERRα protein can undergo a conformational change resulting in a loss of co-activator binding.
Compounds of the present invention were tested for their ability to disrupt binding of ERRα-LBD protein to co-activator peptide using AlphaScreen® Technology (Perkin Elmer). ERRα-LBD protein was expressed in E. coli as a 6×His Small Ubiquitin-like Modifier (SUMO) fusion. Bacterial expressed 6His-SUMO-ERRα-LBD protein was purified using affinity chromatography. All experiments were performed at room temperature in 384-well white non-binding plates (Greiner) using 50 mM Tris-HCl pH 7.5, 100 mM NaCl, 0.1% Pluronic F-127, 0.05% BSA and 5 mM TCEP as the buffer. Final DMSO concentration was 1% in the assay. Compounds were assayed in triplicate and: incubated with 0.81 nM ERRα-LBD protein and 10 μg/mL streptavidin donor beads and 10 μg/mL Ni-chelate acceptor beads for 1 hour at room temperature; followed by a 2-hour incubation with 15 nM biotin-PGC1α-3 peptide (QRRPCSELLKYLTTNDDPP) corresponding to amino acids 202 to 220.
The AlphaScreen signal was measured using an Envision Xcite plate reader (Perkin Elmer). Data was normalized, and curve fitting analysis was performed in GraphPad Prism 7 using a four-parameter dose-response fit.
For orientation: In Alpha technology, singlet oxygen from a donor bead excites a nearby acceptor bead.

As to `COc1cc(C2CC(=O)Nc3n[nH]cc32)ccc1Oc1cccc(C(F)(F)F)c1` (centres unmarked) [Example 6, 4-{3-methoxy-4-[3-(trifluoromethyl)phenoxy]phenyl}-2H,4H,5H,6H,7H-pyrazolo[3,4-b]pyridin-6-one], the IC50 was 100 to 1000 nM.
`COc1cc(C2CC(=O)Nc3n[nH]cc32)ccc1Oc1ccc(C(=O)O)cc1C(C)(C)C` (centres unmarked) [Example 61, 3-tert-butyl-4-(2-methoxy-4-{6-oxo-2H,4H,5H,6H,7H-pyrazolo[3,4-b]pyridin-4-yl}phenoxy)benzoic acid]: the IC50 was 10 to 100 nM.
Take `COc1cc(C2CC(=O)Nc3n[nH]cc32)ccc1Oc1cccc(C(C)(C)C)c1` (centres unmarked) [Example 15, 4-[4-(3-tert-butylphenoxy)-3-methoxyphenyl]-2H,4H,5H,6H,7H-pyrazolo[3,4-b]pyridin-6-one]: the IC50 is 10 to 100 nM.
For `COc1cc(C2CC(=O)Nc3n[nH]cc32)ccc1Oc1cccc(C(C)C)c1` (centres unmarked) [Example 30, 4-{3-methoxy-4-[3-(propan-2-yl)phenoxy]phenyl}-2H,4H,5H,6H,7H-pyrazolo[3,4-b]pyridin-6-one], the IC50 was 10 to 100 nM.
With `O=C1CC(c2ccc(Oc3ccccc3S(F)(F)(F)(F)F)c(OC(F)(F)F)c2)c2c[nH]nc2N1` (centres unmarked) [Example 58, 4-{4-[2-(pentafluoro-λ^6-sulfanyl)phenoxy]-3-(trifluoromethoxy)phenyl}-2H,4H,5H,6H,7H-pyrazolo[3,4-b]pyridin-6-one], the IC50 is 10 to 100 nM.
In the case of `COc1cc(C2CC(=O)Nc3n[nH]cc32)ccc1Oc1ccc(C(F)(F)F)cc1` (centres unmarked) [Example 5, 4-{3-methoxy-4-[4-(trifluoromethyl)phenoxy]phenyl}-2H,4H,5H,6H,7H-pyrazolo[3,4-b]pyridin-6-one], the IC50 was 100 to 1000 nM.
In the case of `COc1ccc(Oc2ccc(C3CC(=O)Nc4n[nH]cc43)cc2OC)c(C(C)(C)C)c1` (centres unmarked) [Example 27, 4-[4-(2-tert-butyl-4-methoxyphenoxy)-3-methoxyphenyl]-2H,4H,5H,6H,7H-pyrazolo[3,4-b]pyridin-6-one], the IC50 is at most 10 nM.
Regarding `COc1cc(C2CC(=O)Nc3n[nH]cc32)ccc1Oc1ccc(C(F)(F)F)cc1C` (centres unmarked) [Example 65, 4-{3-methoxy-4-[2-methyl-4-(trifluoromethyl)phenoxy]phenyl}-2H,4H,5H,6H,7H-pyrazolo[3,4-b]pyridin-6-one], the IC50 was 100 to 1000 nM.
`COc1cc(C2CC(=O)Nc3n[nH]cc32)ccc1Oc1ccccc1C(C)C` (centres unmarked) [Example 23, 4-{3-methoxy-4-[2-(propan-2-yl)phenoxy]phenyl}-2H,4H,5H,6H,7H-pyrazolo[3,4-b]pyridin-6-one]: the IC50 is 10 to 100 nM.
The figure for `CCc1ccccc1Oc1ccc(C2CC(=O)Nc3n[nH]cc32)cc1OC` (centres unmarked) [Example 20, 4-[4-(2-ethylphenoxy)-3-methoxyphenyl]-2H,4H,5H,6H,7H-pyrazolo[3,4-b]pyridin-6-one] is 100 to 1000 nM; for `COc1cc(C2CC(=O)Nc3n[nH]cc32)ccc1Oc1cc(C)cc(C)c1` (single isomer, unassigned; (+)) [Example 81, (+)-4-[4-(3,5-dimethylphenoxy)-3-methoxyphenyl]-2H,4H,5H,6H,7H-pyrazolo[3,4-b]pyridin-6-one] it is 100 to 1000 nM.
On to `COc1cc(C2CC(=O)Nc3n[nH]cc32)ccc1Oc1cc(C)cc(C(F)(F)F)c1` (single isomer, unassigned; (+)) [Example 83, (+)-4-{3-methoxy-4-[3-methyl-5-(trifluoromethyl)phenoxy]phenyl}-2H,4H,5H,6H,7H-pyrazolo[3,4-b]pyridin-6-one], for which the IC50 is 100 to 1000 nM.
Consider `COc1cc(Oc2ccc(C3CC(=O)Nc4n[nH]cc43)cc2Br)cc(C(F)(F)F)c1` (centres unmarked) [Example 52, 4-{3-bromo-4-[3-methoxy-5-(trifluoromethyl)phenoxy]phenyl}-2H,4H,5H,6H,7H-pyrazolo[3,4-b]pyridin-6-one], for which the IC50 is 10 to 100 nM.
Consider `COc1cc(C2CC(=O)Nc3n[nH]cc32)ccc1Oc1ccccc1-c1ccccc1` (centres unmarked) [Example 24, 4-[3-methoxy-4-(2-phenylphenoxy)phenyl]-2H,4H,5H,6H,7H-pyrazolo[3,4-b]pyridin-6-one], for which the IC50 was 100 to 1000 nM.
